Test results reported in US8158165B2, “Preventative treatment and remission of allergic diseases” (CSIR, priority 2006, dated 2012).
“And” between values parts separate entries of the source, which are not always exact repeats. Equal values may be shown once.

How the values were obtained:
[1] = test system: Ovalbumin-induced bronchoconstriction; assay: Pulmonary, Antigen/Lipoxygenase Metabolites, in Guinea Pigs (intratracheal pressure); type: in vivo, guinea pig
Protocol: Assays were performed at MDS Pharma in Taiwan and reference standards used as an integral part of each assay to ensure the validity of the results obtained. The biological assay employed was the Pulmonary, Antigen/Lipoxygenase Metabolites assay and the diethyl ether extract of Siphonochilus aethiopicus was evaluated for possible activity in this in vivo assay.
WG-I-101 was suspended in 0.5% CMC/0.1% Tween 80. The test substance at a dose of 500 mg/kg was given orally twice daily for 3 consecutive days and an additional final dose was added at one hour before challenge of Ovalbuminon testing day. Dosing volume of 10 ml/kg was used. The formulation is summarized as follows: […]
Groups of 5 Dunkin-Hartley derived male guinea pigs weighing 400±50 g (final day) were employed. The animals were anesthetized with pentobarbital sodium (50 mg/kg IP, with an additional 15 mg/kg IP if needed). An aluminum plate kept at 37° C. through water flow from a bath was placed beneath the test animals to maintain body temperature. The trachea was cannulated and a rodent ventilator (Harvard, USA) was used for artificial ventilation (10 ml/kg, 50 breaths/minute). Through a side-arm of the cannula, intratracheal pressure (ITP) was measured using a Pneumatic pulse transducer (Narco Biosystem, USA). A carotid artery was cannulated (PE50, Clay Adams, USA) for measurements of blood pressure using a Stathem P23×L transducer (Viggo-Spectramed, USA) and heart rate was obtained from lead II ECG. Guinea pigs were sensitized with IP injections of ovalbumin (0.5 μg/0.5 ml/animal) and Al (OH)3 (1 mg/0.5 ml/animal) on days 1 and 8. The animals were then challenged with 15 μg/kg of Ovalbumin (IV) between days 19 and 23 and bronchopulmonary constriction was recorded as an increase in ITP.
(§1) The test substance at 500 mg/kg was administered orally twice daily for 3 consecutive days and an additional final dose was added on testing day, then, one hour after final dose, the animals were injected intravenously (1 ml/kg) with a “cocktail”: Indomethacin (10 mg/kg), Mepyramine (2 mg/kg), and Propranolol (100 μg/kg), followed by challenge with ovalbumin 5 minutes later. […] Bronchoalveolar lavage fluid was retrieved after instilling 5 ml of phosphate buffered saline for 2 times. TNF-α, IL-1β and IL-8 in bronchoalveolar lavage fluid (BALF) supernatants were measured with ELISA after ovalbumin challenge. One-way ANOVA followed by Dunnett's Test was applied for comparison between the vehicle control and test compound-treated groups. P<0.05 is considered significant.
Anesthetized and artificially ventilated guinea pigs previously sensitized were pretreated with Mepyramine 2 mg/kg, Indomethacin 10 mg/kg and Propranol 0.1 mg/kg for 5 minutes; arterial blood pressure (BP, mm Hg), heart rate (HR, beats/min.) and tracheal pressure (TP, cm H2O) were recorded after oral dosing for 3 days. At the end of chronic dosing, antigen (Ovalbumin 15 μg/kg IV)-induced increase in tracheal pressure (ITP) above an initial baseline of 6 cm H2O was then recorded as an indication of bronchoconstriction. Percent (%) inhibition is calculated according to the formula of [Increase in Tracheal Pressure (vehicle-treated)]−[Increase in Tracheal Pressure (test substance-treated)/[Increase in Tracheal Pressure (vehicle-treated)]×100%. • 1. ΔITP: Changes in ITP over corresponding baseline values; (−) Oval: Response to vehicle or test substance alone and before Ovalbumin challenge; (+) Oval: Changes in response to Ovalbumin challenge. • 2. % Control: ITP response to test substance, vehicle expressed in terms of percentage of the ITP response to Ovalbumin (15 μg/kg IV) in the vehicle-treated control (100%). • 3. […]
The trachea is cannulated and the guinea pig ventilated with a Harvard rodent respirator in a closed system. Tracheal pressure is recorded through a side-arm of the cannula connected to a P23ID Statham transducer. […]

[2] = test system: TNF-α; assay: TNF-α in bronchoalveolar lavage fluid after ovalbumin challenge (ELISA); type: in vivo, guinea pig; conditions: BALF, WG-1-101 500 mg/kg PO, Phenidone 30 mg/kg IV
Protocol: as §1
(§2) Bronchoalveolar lavage fluid (BALF) samples in the WG-I-101-treated group were prepared for measurements of TNF-α, IL-1β and IL-8 after ovalbumin challenge. One-way ANOVA followed by Dunnett's test was applied for comparison between the vehicle control and test compound-treated groups. P<0.05 is considered significant.
(§3) Bronchoalveolar lavage fluid (BALF) samples in the WG-I-101 treated group were prepared for measurements of TNF-α, IL-1β and IL-8 after Ovalbumin challenge. TNF-α, IL-1β and IL-8 levels of each sample were assessed using TNF-α, IL-1β and IL-8 ELISA kits, respectively. […]

[3] = test system: IL-8; assay: IL-8 in bronchoalveolar lavage fluid after ovalbumin challenge (ELISA); type: in vivo, guinea pig; conditions: BALF, WG-1-101 500 mg/kg PO, Phenidone 30 mg/kg IV
Protocol: as §1, §2, §3

[4] = test system: IL-1β; assay: IL-1β in bronchoalveolar lavage fluid after ovalbumin challenge (ELISA); type: in vivo, guinea pig; conditions: BALF, WG-1-101 500 mg/kg PO, Phenidone 30 mg/kg IV
Protocol: as §1, §2, §3

[5] = test system: Ovalbumin-induced bronchoconstriction; conditions: assay protocol reference data; cited from earlier work

In the case of `O=C1CCN(c2ccccc2)N1` [Phenidone], the “% Control” value ([1]; ITP response to test substance as % of Ovalbumin response in vehicle control) is reported as 0%, the “ΔITP (cm H2O) (+) Oval, X ± SEM” value ([1]; group mean of 5, response to Ovalbumin 15 μg/kg IV, WG-1-101 500 mg/kg PO bidx3 & qdx1, Phenidone 30 mg/kg IV qdx1) is reported as 1.8 ± 0.8 cm H2O and the “ΔITP (cm H2O) (−) Oval, X ± SEM” value ([1]; group mean, before Ovalbumin challenge, WG-1-101 500 mg/kg PO bidx3 & qdx1, Phenidone 30 mg/kg IV qdx1) is reported as 0 cm H2O. The “ΔITP (cm H2O) (−) Oval” value ([1]; individual animals N 1-5, before Ovalbumin challenge, WG-1-101 500 mg/kg PO bidx3 & qdx1, Phenidone 30 mg/kg IV qdx1) was 0 cm H2O, the “ΔITP (cm H2O) (+) Oval” value ([1]; individual animals N 1-5, response to Ovalbumin 15 μg/kg IV, WG-1-101 500 mg/kg PO bidx3 & qdx1, Phenidone 30 mg/kg IV qdx1) was 4.8 cm H2O and 1.8 cm H2O and 1.2 cm H2O and 0.6 cm H2O (2×) and the “% Inhibition of Ovalbumin-induced bronchoconstriction” value ([1]; relative to vehicle-treated control, WG-1-101 500 mg/kg PO bidx3 & qdx1, Phenidone 30 mg/kg IV qdx1) was “(89) %”. The “TNF-α (pg/ml), X” value ([2]; group mean) was 7.62 pg/mL, the “TNF-α” value ([2]; individual animals N 1-5) was 12.03 pg/mL and 7.0 pg/mL and 3.79 pg/mL and 8.96 pg/mL and 6.33 pg/mL and the “IL-8 Cont(pg/ml), X” value ([3]; group mean, * P<0.05 vs vehicle) was 0.97* pg/ml. For the same compound, the “IL-8 Cont(pg/ml)” value ([3]; individual animals N 1-5) was 3.63 pg/ml and 1.22 pg/ml and 0.00 pg/ml (3×), the “IL-1β (pg/ml), X” value ([4]; group mean) was 1.21 pg/mL and the “IL-1β” value ([4]; individual animals N 1-5) was 3.10 pg/mL and 0.24 pg/mL and 0.46 pg/mL and 2.25 pg/mL and 0.00 pg/mL. The MED mg/kg i.v. [5] was 30 mg/kg.

In the case of `CC(Cc1ccc(O)c(O)c1)C(C)Cc1ccc(O)c(O)c1` (stereo not drawn) [NDGA, nordihydroguaretic acid], the MED mg/kg i.v. [5] is listed as 10 mg/kg.

For `CN1[C@@H]2CC[C@H]1C[C@@H](OC(=O)C(CO)c1ccccc1)C2` (stereo partly drawn) [Atropine], the MED mg/kg i.v. [5] is given as greater than 10 mg/kg.

For `CCCc1c(OCCCCc2nnn[nH]2)ccc(C(C)=O)c1O` [LY-171883, 1[2-hyroxy-3-propyl-4-[4-(1H-tetrazol-5-yl)butoxy]phenyl]ethanone], the MED mg/kg i.v. [5] is given as 30 mg/kg.

In the case of `O=C(O)c1cc(=O)c2c(OCC(O)COc3cccc4oc(C(=O)O)cc(=O)c34)cccc2o1` [Cromolyn Sodium], the MED mg/kg i.v. [5] is given as greater than 100 mg/kg.

In the case of `CC(C)(C)NCC(O)c1ccc(O)c(CO)c1` (stereo not drawn) [Salbutamol], the MED mg/kg i.v. [5] is given as 0.1 mg/kg.
